Marks after values point to notes of the source that are not given here.
Experiment: Antioxidant activity, DPPH test
Type: biochemical
Conditions: second SC50 column; control; in brackets tolerated range 95%
Protocol: The antioxidant activity of the dry extract A, obtained as above illustrated in Example 1, of Fadogia ancylantha was determined using the 2,2 diphenyl-1-picrilhydrazilic stable radical (DPPH°) and α-tocopherol as a control, according to the protocol disclosed by Aquino R. et al. in "Phenolic constituents and antioxidant activity of an extract of Anthurium versicolor leaves", J. of Natural products 64, 1019-1023.
The decrease of absorbance measured according to the above protocol is directly correlated with the free-radical scavenger ability of the antioxidant under test.
The DPPH° percentage remaining at the steady state (%DPPH°RIM) is calculated by applying the following formula %DPPH°RIM = (DPPH)° × T1 /(DPPH°) × To × 100 [formula] where T1 is the time to reach the steady state.
The amount of the antioxidant needed to reduce the radical initial concentration to a half (SC50, expressed as µg of the extract/ml) was calculated from the percentage of DPPH°RIM with respect to the antioxidant concentrations used.
All tests were carried out in triplicate and repeated for three times.

Cc1c(C)c2c(c(C)c1O)CC[C@@](C)(CCC[C@H](C)CCC[C@H](C)CCCC(C)C)O2 [α-tocopherol]
DPPH test SC50: 10.1 (8.8-11.4)^c µg/ml of phenols

Source: patent EP1818060A1, “Cosmetic composition comprising Fadogia ancylantha extracts” (ARTSANA S.p.A., priority 2005, dated 2007)
